From article PMC7468285, “The operational model of allosteric modulation of pharmacological agonism” (Scientific Reports, 2020)
Several values for one entry are separate records, joined by “and”; a condition that tells them apart may be missing. Identical values can stand only once. Like-named read-outs stand apart in the source and are kept apart here.

What was measured:
M1 muscarinic receptor [1] = target: T1, M1 muscarinic receptor (Homo sapiens, UniProt P11229); assay type: binding
T1 construct: expressed in transfected cells; host or cells: CHO cells
T1 sequence (P11229 1-460): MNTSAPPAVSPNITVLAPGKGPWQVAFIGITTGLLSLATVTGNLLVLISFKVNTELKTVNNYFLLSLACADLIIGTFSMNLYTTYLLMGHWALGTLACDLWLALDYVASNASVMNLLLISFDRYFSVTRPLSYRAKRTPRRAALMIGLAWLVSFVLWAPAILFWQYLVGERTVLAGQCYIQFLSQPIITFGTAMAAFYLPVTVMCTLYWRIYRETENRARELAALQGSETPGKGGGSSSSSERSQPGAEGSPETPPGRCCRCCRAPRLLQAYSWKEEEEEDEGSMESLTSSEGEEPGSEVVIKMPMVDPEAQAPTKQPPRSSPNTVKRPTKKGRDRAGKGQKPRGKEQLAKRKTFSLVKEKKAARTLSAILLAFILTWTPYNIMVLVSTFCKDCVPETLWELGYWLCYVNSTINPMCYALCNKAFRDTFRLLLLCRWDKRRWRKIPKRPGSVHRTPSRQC
Protocol: (§1) CHO cells were grown to confluence in 75 cm^2 flasks in Dulbecco’s modified Eagle’s medium (DMEM) supplemented with 10% fetal bovine serum. Two million cells were subcultured in 100 mm Petri dishes. The medium was supplemented with 5 mM sodium butyrate for the last 24 h of cultivation to increase receptor expression. Cells were washed with phosphate-buffered saline and manually harvested on day 5 after subculture and centrifuged for 3 min at 250 × g. The pellet was suspended in 10 ml of ice-cold homogenization medium (100 mM NaCl, 20 mM Na-HEPES, 10 mM EDTA, pH = 7.4) and homogenized on ice by two 30 s strokes using a Polytron homogenizer (Ultra-Turrax; Janke & Kunkel GmbH & Co. KG, IKA-Labortechnik, Staufen, Germany) with a 30-s pause between strokes. Cell homogenates were centrifuged for 5 min at 1,000 × g. The supernatant was collected and centrifuged for 30 min at 30,000 × g. Pellets were suspended in the washing medium (100 mM, 10 mM MgCl2, 20 mM Na-HEPES, pH = 7.4), left for 30 min at 4 °C, and then centrifuged again for 30 min at 30,000 × g. Resulting membrane pellets were kept at -80 °C until assayed.
All radioligand binding experiments were optimized and carried out according to general guidelines. […] Agonist binding was determined in competition experiments with 1 nM [^3H]NMS. Nonspecific binding was determined in the presence of 10 μM atropine. Incubation was terminated by filtration through Whatman GF/C glass fibre filters (Whatman) using a Brandel harvester (Brandel, USA). […] The filters were cooled and counted in a Wallac Microbeta scintillation counter (Wallac, Finland).
Data from experiments were processed in Libre Office and then analysed and plotted using program Grace (https://plasma-gate.weizmann.ac.il/Grace). […] Inhibition constant KI was calculated as:28 KI=IC50/1+D/KD where [D] is the concentration of radioligand used and KD is its equilibrium dissociation constant.
Interaction between tracer ([^3H]NMS) and allosteric modulator:29 y=D+KD/D+KDKB+x/KB+xα where y is specific radioligand binding at concentration x of the allosteric modulator as per cent of binding in the absence of allosteric modulator. Where [D] and KD are concentration and equilibrium dissociation constant of the tracer ([^3H]NMS). The equilibrium dissociation constant of the allosteric modulator KB and factor of binding cooperativity α are obtained by fitting of Eq. (29) to data.
Interaction between tracer ([^3H]NMS) and allosteric modulator in the presence of an agonist at fixed concentration:30 y=D+KD/D+KDAKB+Bα2+KAKB+B/KAKB+Bα1 where y is specific radioligand binding at concentration x of the allosteric modulator as per cent of binding in the absence of allosteric modulator. Where [D] and KD are concentration and equilibrium dissociation constant of the tracer ([^3H]NMS), [A] and KA are concentration and equilibrium dissociation constant of the agonist. Parameters KB and α1 obtained by fitting of Eq. (29) to binding data in the absence of the agonist.31 Concentration-responsecurvey=basal+EMAX′-basal∗x^nH/x^nH+EC50nH where y is response normalized to basal activity in the absence of allosteric ligand at concentration x, E'MAX is the apparent maximal response, EC50 is concentration causing half-maximal effect, and nH is Hill coefficient.

M1 muscarinic receptor [2] = target: T1, M1 muscarinic receptor; assay type: cell-based; details: for τA / EMAX: Table S3B, global fit; for τA: EMAX as shared parameter; for EMAX: EMAX estimated as shared parameter of all 4 curves; for α (factor of binding cooperativity) / β (factor of operational cooperativity): functional, global fit of Eq. (14)
Protocol: as §1
Accumulation of inositol phosphates (IPX) was assayed in cells in suspension. IPX was determined after separation on ion-exchange columns (Dowex 1X8-200, Sigma, USA). Cells were harvested by mild trypsinization and resuspended in KHB and centrifuged 250 g for 3 min. Cells were resuspended in KHB supplemented with 500 nM [^3H]myo-inositol (ARC, USA) and incubated at 37 °C for 1 h. Then they were washed once with an excess of KHB, resuspended in KHB containing 10 mM LiCl, and incubated for 1 h at 37 °C in the presence of indicated concentrations of agonists and/or allosteric modulator. Incubation was terminated by the addition of 0.5 ml of stopping solution (chloroform: methanol: HCl; 2: 1: 0.1) and placed in 4 °C for 1 h. An aliquot (0.6 ml) of the upper (aqueous) phase was taken and loaded onto ion-exchange columns. Columns were washed with 10 ml of deionized water and 20 ml of 60 mM ammonium formate/5 mM sodium borate solution. IPX were collectively eluted from columns by 4 ml of 1 M ammonium formate-0.1 M/formic acid buffer.
Where [D] and KD are concentration and equilibrium dissociation constant of the tracer ([^3H]NMS), [A] and KA are concentration and equilibrium dissociation constant of the agonist. Parameters KB and α1 obtained by fitting of Eq. (29) to binding data in the absence of the agonist.31 Concentration-responsecurvey=basal+EMAX′-basal∗x^nH/x^nH+EC50nH where y is response normalized to basal activity in the absence of allosteric ligand at concentration x, E'MAX is the apparent maximal response, EC50 is concentration causing half-maximal effect, and nH is Hill coefficient.

C[N+](C)(C)CC#CCOC1=NOCC1 [iperoxo]
flow (fraction of low-affinity sites) (M1 muscarinic receptor [1]; Eq. (27)): 51 ± 5% | high-affinity binding (candidate KA) (M1 muscarinic receptor [1]; competition with [3H]NMS, high-affinity sites): 200 pM | pIC50high (M1 muscarinic receptor [1]; high-affinity sites, 1 nM [3H]NMS, Eq. (27)): 8.99 ± 0.05 | pKIhigh (M1 muscarinic receptor [1]; high-affinity sites, 1 nM [3H]NMS, calculated from IC50 by Eq. (28)): 9.70 ± 0.05 | pIC50low (M1 muscarinic receptor [1]; low-affinity sites, 1 nM [3H]NMS, Eq. (27)): 5.96 ± 0.04 | pKIlow (M1 muscarinic receptor [1]; low-affinity sites, 1 nM [3H]NMS, calculated from IC50 by Eq. (28)): 6.66 ± 0.04 | τA (M1 muscarinic receptor [2]): 1.97 ± 708 | EMAX (M1 muscarinic receptor [2]): 98 ± 53 | basal (M1 muscarinic receptor [2]; agonist alone): 1 fold-over basal | efficacy ranking (M1 muscarinic receptor [2]; functional experiments): greater efficacy than carbachol | E’MAX (apparent maximal response) (M1 muscarinic receptor [2]; ligand alone, Eq. (31)): 64.7 ± 0.5 fold-over basal | nH (slope) (M1 muscarinic receptor [2]; ligand alone, Eq. (31)): 1.04 ± 0.02 | pEC50 (M1 muscarinic receptor [2]; ligand alone, Eq. (31)): 9.42 ± 0.01 | operational efficacy τ (τA / τB) (M1 muscarinic receptor [2]; ligand alone, Eq. […]): 1.86 ± 0.04 | pKA / pKB (functional) (M1 muscarinic receptor [2]; ligand alone, Eq. […]): 8.96 ± 0.02

Cc1ccccc1CN1CCC(N2CCC(n3c(=O)[nH]c4ccccc43)CC2)CC1 [TBPB, 3-[1-[1-[(2-methylphenyl)methyl]piperidin-4-yl]piperidin-4-yl]-1H-benzimidazol-2-one]
αNMS (factor of binding cooperativity with NMS) (M1 muscarinic receptor [1]; Eq. (29)): 0.002 ± 0.001 | inhibition of [3H]NMS binding (M1 muscarinic receptor [1]; allosteric ligand alone): completely inhibited | αcarbachol (factor of binding cooperativity with carbachol) (M1 muscarinic receptor [1]; binding experiments, Eq. (30)): 0.7 ± 0.3 | αiperoxo (factor of binding cooperativity with iperoxo) (M1 muscarinic receptor [1]; binding experiments, Eq. (30)): 0.8 ± 0.4 | decrease in affinity of [3H]NMS (M1 muscarinic receptor [1]; fit of Eq. (29), TBPB estimate with high uncertainty): 500 fold | binding cooperativity with carbachol and iperoxo (M1 muscarinic receptor [1]; fit of Eq. (30), high degree of uncertainty): slightly negative | E’MAX (M1 muscarinic receptor [2]): 56.0 ± 2.2 and 57.8 ± 3.3 and 57.9 ± 1.4 | E′MAX of response compared with carbachol (M1 muscarinic receptor [2]): close to E′MAX of full agonist carbachol | basal (M1 muscarinic receptor [2]): 52.7 and 53.2 and 51.3 | effect on EC′50 of carbachol and iperoxo (M1 muscarinic receptor [2]): increased EC′50 values | nH (M1 muscarinic receptor [2]): 1.15 ± 0.18 and 1.18 ± 0.20 and 0.85 ± 0.15 | binding cooperativity α in functional experiments compared with binding experiments (M1 muscarinic receptor [2]; Figs. 14 and 15 vs Fig. 12): about twice stronger | τA (M1 muscarinic receptor [2]): 1.26 ± 334 | EMAX (M1 muscarinic receptor [2]): 98 ± 53 | effect on E′MAX of carbachol and iperoxo (M1 muscarinic receptor [2]; fixed concentrations of allosteric ligand): decreased E′MAX values | α (factor of binding cooperativity) (M1 muscarinic receptor [2]; with carbachol): 0.48 ± 0.05 | β (factor of operational cooperativity) (M1 muscarinic receptor [2]; with carbachol): 0.80 ± 0.05 | α (factor of binding cooperativity) (M1 muscarinic receptor [2]; with iperoxo): 0.51 ± 0.08 | β (factor of operational cooperativity) (M1 muscarinic receptor [2]; with iperoxo): 0.78 ± 0.08 | E’MAX (M1 muscarinic receptor [2]; iperoxo + 1 µM TBPB): 59.7 ± 3.9 fold-over basal | basal (M1 muscarinic receptor [2]; iperoxo + 1 µM TBPB): 51.3 fold-over basal | nH (M1 muscarinic receptor [2]; iperoxo + 1 µM TBPB): 1.18 ± 0.20 | E’MAX (M1 muscarinic receptor [2]; iperoxo + 3 µM TBPB): 58.0 ± 4.8 fold-over basal | basal (M1 muscarinic receptor [2]; iperoxo + 3 µM TBPB): 52.7 fold-over basal | nH (M1 muscarinic receptor [2]; iperoxo + 3 µM TBPB): 0.82 ± 0.20 | E’MAX (M1 muscarinic receptor [2]; iperoxo + 10 µM TBPB): 57.6 ± 2.9 fold-over basal | basal (M1 muscarinic receptor [2]; iperoxo + 10 µM TBPB): 53.2 fold-over basal | nH (M1 muscarinic receptor [2]; iperoxo + 10 µM TBPB): 1.19 ± 0.22 | E’MAX (apparent maximal response) (M1 muscarinic receptor [2]; ligand alone, Eq. (31)): 54.4 ± 0.9 fold-over basal | nH (slope) (M1 muscarinic receptor [2]; ligand alone, Eq. (31)): 1.01 ± 0.08 | operational cooperativity β (M1 muscarinic receptor [2]; with both carbachol and iperoxo, indicated by E′MAX change): < 1
